Laboratory results taken from PubChem BioAssay (NCI).
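Compound exposure: 48 hours, 5 concentrations, 96-well plates. The concentration for 50% growth inhibition is given as GI50. The concentration for full growth arrest is given as TGI.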

What was measured:
Experiment in all cases: inhibition of tumour cell growth, NCI panel, 48 h
786-0 renal = test system: 786-0 renal
A498 renal = test system: A498 renal
A549 NSCLC = test system: A549 NSCLC
ACHN renal = test system: ACHN renal
BT-549 breast = test system: BT-549 breast
CAKI-1 renal = test system: CAKI-1 renal
CCRF-CEM leukemia = test system: CCRF-CEM leukemia
COLO 205 colon = test system: COLO 205 colon
DU-145 prostate = test system: DU-145 prostate
EKVX NSCLC = test system: EKVX NSCLC
HCC-2998 colon = test system: HCC-2998 colon
HCT-116 colon = test system: HCT-116 colon
HCT-15 colon = test system: HCT-15 colon
HL-60(TB) leukemia = test system: HL-60(TB) leukemia
HOP-62 NSCLC = test system: HOP-62 NSCLC
HOP-92 NSCLC = test system: HOP-92 NSCLC
HS 578T breast = test system: HS 578T breast
HT29 colon = test system: HT29 colon
IGROV1 ovarian = test system: IGROV1 ovarian
K-562 leukemia = test system: K-562 leukemia
KM12 colon = test system: KM12 colon
LOX IMVI melanoma = test system: LOX IMVI melanoma
M14 melanoma = test system: M14 melanoma
MALME-3M melanoma = test system: MALME-3M melanoma
MCF7 breast = test system: MCF7 breast
MDA-MB-231 breast = test system: MDA-MB-231 breast
MDA-MB-435 = test system: MDA-MB-435
MDA-MB-468 breast = test system: MDA-MB-468 breast
MOLT-4 leukemia = test system: MOLT-4 leukemia
NCI-H226 lung = test system: NCI-H226 lung
NCI-H23 lung = test system: NCI-H23 lung
NCI-H460 lung = test system: NCI-H460 lung
NCI-H522 lung = test system: NCI-H522 lung
NCI/ADR-RES ovarian = test system: NCI/ADR-RES ovarian
OVCAR-3 ovarian = test system: OVCAR-3 ovarian
OVCAR-4 ovarian = test system: OVCAR-4 ovarian
OVCAR-5 ovarian = test system: OVCAR-5 ovarian
OVCAR-8 ovarian = test system: OVCAR-8 ovarian
PC-3 prostate = test system: PC-3 prostate
RPMI-8226 leukemia = test system: RPMI-8226 leukemia
RXF 393 renal = test system: RXF 393 renal
SF-268 CNS = test system: SF-268 CNS
SF-295 CNS = test system: SF-295 CNS
SF-539 CNS = test system: SF-539 CNS
SK-MEL-2 melanoma = test system: SK-MEL-2 melanoma
SK-MEL-28 melanoma = test system: SK-MEL-28 melanoma
SK-MEL-5 melanoma = test system: SK-MEL-5 melanoma
SK-OV-3 ovarian = test system: SK-OV-3 ovarian
SN12C renal = test system: SN12C renal
SNB-19 CNS = test system: SNB-19 CNS
SNB-75 CNS = test system: SNB-75 CNS
SR leukemia = test system: SR leukemia
SW-620 colon = test system: SW-620 colon
T-47D breast = test system: T-47D breast
TK-10 renal = test system: TK-10 renal
U251 CNS = test system: U251 CNS
UACC-257 melanoma = test system: UACC-257 melanoma
UACC-62 melanoma = test system: UACC-62 melanoma
UO-31 renal = test system: UO-31 renal

COc1nc(N)ncc1-c1ccc2ncnc(N3CCc4cc(F)c(Cl)cc43)c2c1
GI50 (786-0 renal): 1.49 µM
TGI (786-0 renal): 3.38 µM
GI50 (A498 renal): 1.54 µM
TGI (A498 renal): 5.43 µM
GI50 (A549 NSCLC): 2.04 µM
TGI (A549 NSCLC): 8.55 µM
GI50 (ACHN renal): 1.21 µM
TGI (ACHN renal): 4.22 µM
GI50 (BT-549 breast): 6.44 µM
TGI (BT-549 breast): > 100 µM
GI50 (CAKI-1 renal): 1.2 µM
TGI (CAKI-1 renal): 3.78 µM
GI50 (CCRF-CEM leukemia): 26 µM
TGI (CCRF-CEM leukemia): > 100 µM
GI50 (COLO 205 colon): 3.37 µM
TGI (COLO 205 colon): > 100 µM
GI50 (DU-145 prostate): 3.82 µM
TGI (DU-145 prostate): 36.2 µM
GI50 (EKVX NSCLC): 1.93 µM
TGI (EKVX NSCLC): 86.2 µM
GI50 (HCC-2998 colon): 2.79 µM
TGI (HCC-2998 colon): 10.1 µM
GI50 (HCT-116 colon): 2.93 µM
TGI (HCT-116 colon): 11.3 µM
GI50 (HCT-15 colon): 3.04 µM
TGI (HCT-15 colon): 24.7 µM
GI50 (HL-60(TB) leukemia): 3.08 µM
TGI (HL-60(TB) leukemia): > 100 µM
GI50 (HOP-62 NSCLC): 1.47 µM
TGI (HOP-62 NSCLC): 5.85 µM
GI50 (HOP-92 NSCLC): 1.81 µM
TGI (HOP-92 NSCLC): 7.23 µM
GI50 (HS 578T breast): 2 µM
TGI (HS 578T breast): 8.4 µM
GI50 (HT29 colon): 7.86 µM
TGI (HT29 colon): 52.2 µM
GI50 (IGROV1 ovarian): 0.594 µM
TGI (IGROV1 ovarian): 3.82 µM
GI50 (K-562 leukemia): 6.45 µM
TGI (K-562 leukemia): > 100 µM
GI50 (KM12 colon): 10.4 µM
TGI (KM12 colon): > 100 µM
GI50 (LOX IMVI melanoma): 3.11 µM
TGI (LOX IMVI melanoma): 14.8 µM
GI50 (M14 melanoma): 18.9 µM
TGI (M14 melanoma): > 100 µM
GI50 (MALME-3M melanoma): 8.68 µM
TGI (MALME-3M melanoma): 49.4 µM
GI50 (MCF7 breast): 3.11 µM
TGI (MCF7 breast): 22 µM
GI50 (MDA-MB-231 breast): 1.84 µM
TGI (MDA-MB-231 breast): 6.46 µM
GI50 (MDA-MB-435): 6.94 µM
TGI (MDA-MB-435): > 100 µM
GI50 (MDA-MB-468 breast): 0.269 µM
TGI (MDA-MB-468 breast): 1.81 µM
GI50 (MOLT-4 leukemia): 11.7 µM
TGI (MOLT-4 leukemia): > 100 µM
GI50 (NCI-H226 lung): 1.15 µM
TGI (NCI-H226 lung): 4.21 µM
GI50 (NCI-H23 lung): 4.26 µM
TGI (NCI-H23 lung): 39.1 µM
GI50 (NCI-H460 lung): 2.65 µM
TGI (NCI-H460 lung): 7.97 µM
GI50 (NCI-H522 lung): 2.3 µM
TGI (NCI-H522 lung): 11.5 µM
GI50 (NCI/ADR-RES ovarian): 2.73 µM
TGI (NCI/ADR-RES ovarian): 15.7 µM
GI50 (OVCAR-3 ovarian): 2.3 µM
TGI (OVCAR-3 ovarian): 11.2 µM
GI50 (OVCAR-4 ovarian): 1.87 µM
TGI (OVCAR-4 ovarian): 4.28 µM
GI50 (OVCAR-5 ovarian): 3.92 µM
TGI (OVCAR-5 ovarian): > 100 µM
GI50 (OVCAR-8 ovarian): 2.33 µM
TGI (OVCAR-8 ovarian): 9.2 µM
GI50 (PC-3 prostate): 10.6 µM
TGI (PC-3 prostate): > 100 µM
GI50 (RPMI-8226 leukemia): 3.26 µM
TGI (RPMI-8226 leukemia): > 100 µM
GI50 (RXF 393 renal): 1.5 µM
TGI (RXF 393 renal): 5.28 µM
GI50 (SF-268 CNS): 12.3 µM
TGI (SF-268 CNS): > 100 µM
GI50 (SF-295 CNS): 2.37 µM
TGI (SF-295 CNS): 7.58 µM
GI50 (SF-539 CNS): 2.96 µM
TGI (SF-539 CNS): 12.5 µM
GI50 (SK-MEL-2 melanoma): > 100 µM
TGI (SK-MEL-2 melanoma): > 100 µM
GI50 (SK-MEL-28 melanoma): 5.2 µM
TGI (SK-MEL-28 melanoma): 18.9 µM
GI50 (SK-MEL-5 melanoma): 4.15 µM
TGI (SK-MEL-5 melanoma): > 100 µM
GI50 (SK-OV-3 ovarian): 1.62 µM
TGI (SK-OV-3 ovarian): 4.03 µM
GI50 (SN12C renal): 1.92 µM
TGI (SN12C renal): 10.1 µM
GI50 (SNB-19 CNS): 2.21 µM
TGI (SNB-19 CNS): 12.2 µM
GI50 (SNB-75 CNS): 1.47 µM
TGI (SNB-75 CNS): 4.02 µM
GI50 (SR leukemia): 3.09 µM
TGI (SR leukemia): > 100 µM
GI50 (SW-620 colon): 4.26 µM
TGI (SW-620 colon): > 100 µM
GI50 (T-47D breast): 1.61 µM
TGI (T-47D breast): 7.67 µM
GI50 (TK-10 renal): 0.703 µM
TGI (TK-10 renal): 4.23 µM
GI50 (U251 CNS): 2.3 µM
TGI (U251 CNS): 7.74 µM
GI50 (UACC-257 melanoma): 8.26 µM
TGI (UACC-257 melanoma): 83.6 µM
GI50 (UACC-62 melanoma): 3.92 µM
TGI (UACC-62 melanoma): 19.9 µM
GI50 (UO-31 renal): 0.583 µM
TGI (UO-31 renal): 3.99 µM
